Source: ChEMBL document CHEMBL3526030, “Transport of the coumarin metabolite 7-hydroxycoumarin glucuronide is mediated via multidrug resistance-associated proteins 3 and 4” (Drug Metab Dispos, 2012)

Columns and labels:
Format in all cases: ADME
[1] = target: T1, ATP-binding cassette sub-family C member 2 (Homo sapiens, UniProt Q92887); assay: Activity at MRP2 (unknown origin) expressed in baculovirus-infected HEK293 cells assessed as drug transport at 400 uM after 10 mins by reversed-phase HPLC analysis in presence of ATP; conditions: hek293, 10 min, BLD = below limit of detection
[2] = target: T2, Multidrug resistance-associated protein 1 (Homo sapiens, UniProt P33527); assay: Activity at MRP1 (unknown origin) expressed in baculovirus-infected HEK293 cells assessed as drug transport at 400 uM after 10 mins by reversed-phase HPLC analysis in presence of ATP; conditions: hek293, 10 min, BLD = below limit of detection
[3] = target: T3, ATP-binding cassette sub-family C member 3 (Homo sapiens, UniProt O15438); assay: Activity at MRP3 (unknown origin) expressed in baculovirus-infected HEK293 cells assessed as drug transport at 400 uM after 10 mins by reversed-phase HPLC analysis in presence of ATP; conditions: hek293, 10 min, BLD = below limit of detection
[4] = target: T4, ATP-binding cassette sub-family C member 4 (Homo sapiens, UniProt O15439); assay: Activity at MRP4 (unknown origin) expressed in baculovirus-infected HEK293 cells assessed as drug transport at 400 uM after 10 mins by reversed-phase HPLC analysis in presence of ATP; conditions: hek293, 10 min, BLD = below limit of detection
T4 sequence (O15439 whole entry): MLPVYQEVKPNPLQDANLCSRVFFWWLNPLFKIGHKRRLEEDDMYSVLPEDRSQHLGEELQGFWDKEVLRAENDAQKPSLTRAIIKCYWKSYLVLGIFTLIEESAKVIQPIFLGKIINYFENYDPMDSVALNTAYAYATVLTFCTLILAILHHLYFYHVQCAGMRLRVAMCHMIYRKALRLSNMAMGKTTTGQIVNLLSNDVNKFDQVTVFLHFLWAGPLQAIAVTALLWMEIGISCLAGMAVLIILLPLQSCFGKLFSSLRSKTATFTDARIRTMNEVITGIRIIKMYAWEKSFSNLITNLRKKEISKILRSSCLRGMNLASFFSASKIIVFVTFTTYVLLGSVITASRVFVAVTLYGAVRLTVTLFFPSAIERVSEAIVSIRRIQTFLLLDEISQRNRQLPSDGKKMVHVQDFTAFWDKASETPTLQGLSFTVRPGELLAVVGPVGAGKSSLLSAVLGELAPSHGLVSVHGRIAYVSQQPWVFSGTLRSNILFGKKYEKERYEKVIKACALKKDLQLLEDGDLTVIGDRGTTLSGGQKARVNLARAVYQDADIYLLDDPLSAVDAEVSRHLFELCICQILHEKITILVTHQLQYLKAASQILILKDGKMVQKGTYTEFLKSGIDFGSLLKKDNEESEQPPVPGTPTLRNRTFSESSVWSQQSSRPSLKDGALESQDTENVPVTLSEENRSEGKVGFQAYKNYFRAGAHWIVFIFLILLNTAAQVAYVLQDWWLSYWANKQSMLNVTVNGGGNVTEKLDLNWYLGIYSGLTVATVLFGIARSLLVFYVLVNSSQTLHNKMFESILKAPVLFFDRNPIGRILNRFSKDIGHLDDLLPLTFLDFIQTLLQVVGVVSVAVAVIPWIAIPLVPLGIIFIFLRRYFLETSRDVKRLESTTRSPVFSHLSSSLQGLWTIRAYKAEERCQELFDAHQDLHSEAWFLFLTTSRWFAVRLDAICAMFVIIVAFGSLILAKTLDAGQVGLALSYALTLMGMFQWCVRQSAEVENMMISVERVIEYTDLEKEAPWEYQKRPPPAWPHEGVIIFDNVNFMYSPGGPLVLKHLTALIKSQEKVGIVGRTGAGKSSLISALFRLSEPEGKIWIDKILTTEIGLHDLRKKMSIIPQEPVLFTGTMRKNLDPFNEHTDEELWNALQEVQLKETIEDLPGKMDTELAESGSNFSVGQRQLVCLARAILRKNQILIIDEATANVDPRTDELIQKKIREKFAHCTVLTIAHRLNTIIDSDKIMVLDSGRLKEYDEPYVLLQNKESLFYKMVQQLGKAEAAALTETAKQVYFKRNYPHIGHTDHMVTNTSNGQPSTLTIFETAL

[5] = Activity at P-gp (unknown origin) expressed in baculovirus-infected HEK293 cells assessed as drug transport at 400 uM after 10 mins by reversed-phase HPLC analysis in presence of ATP; conditions: human, hek293, 10 min
[6] = target: T5, Broad substrate specificity ATP-binding cassette transporter ABCG2 (Homo sapiens, UniProt Q9UNQ0); assay: Activity at BCRP (unknown origin) expressed in baculovirus-infected HEK293 cells assessed as drug transport at 400 uM after 10 mins by reversed-phase HPLC analysis in presence of ATP; conditions: hek293, 10 min, BLD = below limit of detection
T5 sequence (Q9UNQ0 whole entry): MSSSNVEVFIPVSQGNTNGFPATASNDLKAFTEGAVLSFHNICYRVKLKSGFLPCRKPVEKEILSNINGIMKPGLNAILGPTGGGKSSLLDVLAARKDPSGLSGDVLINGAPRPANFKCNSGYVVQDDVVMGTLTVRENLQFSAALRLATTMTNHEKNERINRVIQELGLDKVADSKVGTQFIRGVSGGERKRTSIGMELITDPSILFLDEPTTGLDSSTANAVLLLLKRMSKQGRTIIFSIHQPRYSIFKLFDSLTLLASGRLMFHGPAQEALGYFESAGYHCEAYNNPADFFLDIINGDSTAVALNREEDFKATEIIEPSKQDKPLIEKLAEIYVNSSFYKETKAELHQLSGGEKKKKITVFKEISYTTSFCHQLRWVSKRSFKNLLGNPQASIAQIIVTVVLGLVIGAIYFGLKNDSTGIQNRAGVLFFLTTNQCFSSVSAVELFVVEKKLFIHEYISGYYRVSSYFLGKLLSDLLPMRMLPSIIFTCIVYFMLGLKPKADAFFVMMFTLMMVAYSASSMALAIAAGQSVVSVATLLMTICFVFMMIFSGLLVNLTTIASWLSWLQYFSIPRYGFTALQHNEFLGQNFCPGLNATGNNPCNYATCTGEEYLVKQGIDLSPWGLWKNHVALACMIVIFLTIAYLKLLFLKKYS

[7] = Activity at P-gp (unknown origin) expressed in baculovirus-infected HEK293 cells assessed as drug transport at 400 uM after 10 mins by reversed-phase HPLC analysis in presence of AMP; conditions: human, hek293, 10 min, BLD = below limit of detection
[8] = target: T5, Broad substrate specificity ATP-binding cassette transporter ABCG2; assay: Activity at BCRP (unknown origin) expressed in baculovirus-infected HEK293 cells assessed as drug transport at 400 uM after 10 mins by reversed-phase HPLC analysis in presence of AMP; conditions: hek293, 10 min, BLD = below limit of detection
[9] = target: T1, ATP-binding cassette sub-family C member 2; assay: Activity at MRP2 (unknown origin) expressed in baculovirus-infected HEK293 cells assessed as drug transport at 400 uM after 10 mins by reversed-phase HPLC analysis in presence of AMP; conditions: hek293, 10 min, BLD = below limit of detection
[10] = target: T4, ATP-binding cassette sub-family C member 4; assay: Activity at MRP4 (unknown origin) expressed in baculovirus-infected HEK293 cells assessed as drug transport at 400 uM after 10 mins by reversed-phase HPLC analysis in presence of AMP; conditions: hek293, 10 min, BLD = below limit of detection
[11] = target: T3, ATP-binding cassette sub-family C member 3; assay: Activity at MRP3 (unknown origin) expressed in baculovirus-infected HEK293 cells assessed as drug transport at 400 uM after 10 mins by reversed-phase HPLC analysis in presence of AMP; conditions: hek293, 10 min, BLD = below limit of detection
[12] = target: T2, Multidrug resistance-associated protein 1; assay: Activity at MRP1 (unknown origin) expressed in baculovirus-infected HEK293 cells assessed as drug transport at 400 uM after 10 mins by reversed-phase HPLC analysis in presence of AMP; conditions: hek293, 10 min, BLD = below limit of detection

T3 sequence (O15438 whole entry): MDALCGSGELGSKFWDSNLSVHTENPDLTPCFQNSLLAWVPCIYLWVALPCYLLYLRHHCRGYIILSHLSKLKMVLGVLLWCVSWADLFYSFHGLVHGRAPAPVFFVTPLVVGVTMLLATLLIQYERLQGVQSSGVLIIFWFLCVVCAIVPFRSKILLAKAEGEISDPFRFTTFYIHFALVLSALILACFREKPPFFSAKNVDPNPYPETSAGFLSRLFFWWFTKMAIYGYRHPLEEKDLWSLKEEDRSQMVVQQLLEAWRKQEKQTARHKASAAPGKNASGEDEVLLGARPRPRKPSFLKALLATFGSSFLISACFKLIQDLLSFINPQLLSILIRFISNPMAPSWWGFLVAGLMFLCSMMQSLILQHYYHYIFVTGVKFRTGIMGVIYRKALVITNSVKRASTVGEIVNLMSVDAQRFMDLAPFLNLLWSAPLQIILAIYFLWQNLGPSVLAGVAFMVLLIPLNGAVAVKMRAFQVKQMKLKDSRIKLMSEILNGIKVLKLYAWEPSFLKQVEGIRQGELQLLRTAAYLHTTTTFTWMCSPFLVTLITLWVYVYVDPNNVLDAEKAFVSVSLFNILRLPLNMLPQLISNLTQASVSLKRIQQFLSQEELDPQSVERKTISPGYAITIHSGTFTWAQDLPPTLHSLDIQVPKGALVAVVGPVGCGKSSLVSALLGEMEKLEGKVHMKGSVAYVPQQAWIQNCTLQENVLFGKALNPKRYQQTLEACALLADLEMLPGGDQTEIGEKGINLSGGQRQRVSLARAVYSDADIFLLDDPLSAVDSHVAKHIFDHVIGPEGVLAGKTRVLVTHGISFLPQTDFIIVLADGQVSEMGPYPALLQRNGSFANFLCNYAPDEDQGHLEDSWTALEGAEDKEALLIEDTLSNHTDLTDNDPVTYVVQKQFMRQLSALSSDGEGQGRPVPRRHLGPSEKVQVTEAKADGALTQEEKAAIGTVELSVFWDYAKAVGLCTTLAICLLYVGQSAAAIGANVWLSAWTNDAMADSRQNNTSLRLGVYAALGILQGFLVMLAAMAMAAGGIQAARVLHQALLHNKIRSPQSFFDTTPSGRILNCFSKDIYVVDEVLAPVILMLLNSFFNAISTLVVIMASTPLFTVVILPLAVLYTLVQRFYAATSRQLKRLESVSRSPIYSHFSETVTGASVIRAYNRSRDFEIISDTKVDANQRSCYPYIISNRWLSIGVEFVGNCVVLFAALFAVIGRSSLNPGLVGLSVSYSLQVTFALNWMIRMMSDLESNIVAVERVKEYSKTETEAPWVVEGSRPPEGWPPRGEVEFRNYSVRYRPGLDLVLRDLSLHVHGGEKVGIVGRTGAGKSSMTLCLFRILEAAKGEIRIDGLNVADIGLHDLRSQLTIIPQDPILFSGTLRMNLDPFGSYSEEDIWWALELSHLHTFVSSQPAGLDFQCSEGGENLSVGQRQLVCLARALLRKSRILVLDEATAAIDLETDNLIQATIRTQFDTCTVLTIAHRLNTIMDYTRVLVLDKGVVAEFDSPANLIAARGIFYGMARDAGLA
T2 sequence (P33527 whole entry): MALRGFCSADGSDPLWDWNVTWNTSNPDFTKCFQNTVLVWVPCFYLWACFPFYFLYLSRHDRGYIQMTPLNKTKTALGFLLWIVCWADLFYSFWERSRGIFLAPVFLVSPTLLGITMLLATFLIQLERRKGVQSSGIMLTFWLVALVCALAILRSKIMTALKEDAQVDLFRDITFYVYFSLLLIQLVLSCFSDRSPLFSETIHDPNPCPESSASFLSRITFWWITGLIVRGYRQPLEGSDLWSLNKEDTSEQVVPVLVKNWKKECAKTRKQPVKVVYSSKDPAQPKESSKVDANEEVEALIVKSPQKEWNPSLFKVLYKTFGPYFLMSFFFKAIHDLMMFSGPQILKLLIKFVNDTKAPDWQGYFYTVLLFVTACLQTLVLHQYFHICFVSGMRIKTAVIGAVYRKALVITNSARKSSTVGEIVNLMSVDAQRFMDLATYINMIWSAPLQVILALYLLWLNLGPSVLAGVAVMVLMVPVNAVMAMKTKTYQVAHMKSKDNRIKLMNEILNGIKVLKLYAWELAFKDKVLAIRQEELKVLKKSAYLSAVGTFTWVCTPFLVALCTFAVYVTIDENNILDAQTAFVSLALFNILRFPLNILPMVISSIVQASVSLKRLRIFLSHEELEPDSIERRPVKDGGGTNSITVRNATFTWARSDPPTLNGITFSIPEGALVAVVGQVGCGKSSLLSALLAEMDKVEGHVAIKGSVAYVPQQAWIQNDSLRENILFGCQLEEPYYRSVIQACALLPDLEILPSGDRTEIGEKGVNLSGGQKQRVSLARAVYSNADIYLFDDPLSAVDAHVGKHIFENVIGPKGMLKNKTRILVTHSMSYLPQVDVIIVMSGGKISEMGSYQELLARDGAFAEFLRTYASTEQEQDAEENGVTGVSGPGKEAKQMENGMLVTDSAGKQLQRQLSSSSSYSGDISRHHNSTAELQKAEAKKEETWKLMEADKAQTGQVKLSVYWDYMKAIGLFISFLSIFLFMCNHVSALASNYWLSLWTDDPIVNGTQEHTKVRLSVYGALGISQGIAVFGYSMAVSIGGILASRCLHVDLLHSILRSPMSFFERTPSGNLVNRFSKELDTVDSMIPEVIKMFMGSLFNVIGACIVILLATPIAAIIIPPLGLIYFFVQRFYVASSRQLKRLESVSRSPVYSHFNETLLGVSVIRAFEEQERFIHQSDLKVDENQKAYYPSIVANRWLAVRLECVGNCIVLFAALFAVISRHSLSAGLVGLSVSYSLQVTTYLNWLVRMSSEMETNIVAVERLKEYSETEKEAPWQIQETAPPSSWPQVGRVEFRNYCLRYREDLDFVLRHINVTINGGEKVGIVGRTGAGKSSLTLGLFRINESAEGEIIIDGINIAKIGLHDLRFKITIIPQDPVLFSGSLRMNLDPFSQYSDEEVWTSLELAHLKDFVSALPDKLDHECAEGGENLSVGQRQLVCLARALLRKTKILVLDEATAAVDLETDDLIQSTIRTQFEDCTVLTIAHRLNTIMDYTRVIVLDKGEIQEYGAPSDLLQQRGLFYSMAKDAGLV
T1 sequence (Q92887 whole entry): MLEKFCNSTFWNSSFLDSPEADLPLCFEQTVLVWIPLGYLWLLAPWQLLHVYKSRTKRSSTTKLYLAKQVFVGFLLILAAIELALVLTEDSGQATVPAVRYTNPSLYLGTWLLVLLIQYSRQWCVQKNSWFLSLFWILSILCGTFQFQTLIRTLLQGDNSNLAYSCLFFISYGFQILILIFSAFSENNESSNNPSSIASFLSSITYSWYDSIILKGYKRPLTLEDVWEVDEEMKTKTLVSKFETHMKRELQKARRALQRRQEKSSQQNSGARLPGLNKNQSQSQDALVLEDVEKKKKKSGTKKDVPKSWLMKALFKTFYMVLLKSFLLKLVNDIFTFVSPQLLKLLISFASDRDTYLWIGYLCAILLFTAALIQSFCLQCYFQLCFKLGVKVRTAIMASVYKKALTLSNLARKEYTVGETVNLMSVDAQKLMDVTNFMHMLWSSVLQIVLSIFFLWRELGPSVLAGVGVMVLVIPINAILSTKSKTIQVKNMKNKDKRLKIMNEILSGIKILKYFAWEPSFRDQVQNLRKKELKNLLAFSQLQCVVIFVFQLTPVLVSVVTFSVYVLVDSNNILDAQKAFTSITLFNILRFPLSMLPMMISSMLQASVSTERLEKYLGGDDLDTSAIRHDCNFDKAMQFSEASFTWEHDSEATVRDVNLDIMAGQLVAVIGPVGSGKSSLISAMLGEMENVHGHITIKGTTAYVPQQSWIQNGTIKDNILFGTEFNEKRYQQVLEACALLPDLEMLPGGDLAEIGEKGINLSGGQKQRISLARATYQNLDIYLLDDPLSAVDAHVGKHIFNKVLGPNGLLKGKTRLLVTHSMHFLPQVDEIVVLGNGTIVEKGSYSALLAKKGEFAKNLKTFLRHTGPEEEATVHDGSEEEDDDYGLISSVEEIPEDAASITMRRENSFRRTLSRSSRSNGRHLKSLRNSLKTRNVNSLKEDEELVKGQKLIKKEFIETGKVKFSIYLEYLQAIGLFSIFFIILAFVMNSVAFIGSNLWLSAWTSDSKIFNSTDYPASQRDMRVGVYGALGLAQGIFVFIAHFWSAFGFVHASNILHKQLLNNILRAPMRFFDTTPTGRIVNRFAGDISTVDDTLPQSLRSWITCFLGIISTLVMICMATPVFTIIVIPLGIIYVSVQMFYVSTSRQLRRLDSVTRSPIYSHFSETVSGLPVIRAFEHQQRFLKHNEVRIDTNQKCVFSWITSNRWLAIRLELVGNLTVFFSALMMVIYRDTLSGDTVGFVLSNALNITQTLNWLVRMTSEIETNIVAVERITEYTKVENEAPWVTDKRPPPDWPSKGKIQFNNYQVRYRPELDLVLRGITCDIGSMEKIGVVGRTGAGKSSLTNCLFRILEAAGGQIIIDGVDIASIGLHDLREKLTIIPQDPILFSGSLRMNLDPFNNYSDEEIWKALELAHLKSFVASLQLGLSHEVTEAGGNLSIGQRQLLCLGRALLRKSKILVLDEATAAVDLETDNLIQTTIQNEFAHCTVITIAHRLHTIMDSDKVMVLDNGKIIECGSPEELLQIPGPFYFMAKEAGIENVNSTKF

| Drug transport [1] | Drug transport [2] | Drug transport [3] | Drug transport [4] | Drug transport ([5]; BLD = below limit of detection) | Drug transport [6] | Drug transport [7] | Drug transport [8] | Drug transport [9] | Drug transport [10] | Drug transport [11] | Drug transport [5] | Drug transport [12] | Compound |
| --- | --- | --- | --- | --- | --- | --- | --- | --- | --- | --- | --- | --- | --- |
| BLD | BLD | BLD | BLD | BLD | BLD |  |  |  |  |  |  |  | O=c1ccc2ccc(O)cc2o1 [UMBELLIFERONE] |
|  |  |  |  |  |  | BLD | BLD | BLD | BLD | BLD | Not Active | BLD | O=C(O)[C@H]1O[C@@H](Oc2ccc3ccc(=O)oc3c2)[C@H](O)[C@@H](O)[C@@H]1O |
